According to US4689346A, “Therapeutic 1-(acylamino)-naphthalene-4-sulphonic acid derivatives” (Laboratorio Fides, S.A., priority 1982, dated 1987):
Where two headings read alike, the source gives them in different places.

Columns and labels:
fibrin plates = assay: Antifibrinolytic activity in vitro by means of fibrin plates, modified and standardized method of Astrup and Mullertz; type: biochemical; conditions: AMCHA as standard (= 1)
Method: The antifibrinolytic activity is evaluated "in vitro" by means of fibrin plates according to the modified and standardized method of Astrup and Mullertz.
The antifibrinolytic activity of the test solution is calculated by interpolating the lysis response in a dose/response curve obtained with reference solutions (graduated dilutions of a standard enzyme). AMCHA was used as a standard antifibrinolytic compound.

capillary resistance = assay: Capillary resistance, modified technique based on that of Lavollay (time to first central petechiae under vacuum, scorbutic diet); type: in vivo; conditions: 0.175 g/kg, oral, guinea-pigs, four weeks
Method: The effect on the capillary resistance is determined by means of a modified technique based on that of Lavollay. An increasingly powerful vacuum is applied to the skin, and the time that elapses before the first central petechiae appear is taken as a measure of the capillary resistance. Three batches of guinea-pigs are used for each product tested, one batch being a normal batch and the two other batches being subjected to a scorbutic diet, one of the latter batches having received the product under investigation from the start of the trial. An initial basal reading and other weekly readings are taken for four weeks. Ethamsylate is used as a standard.

[1] = system: vascular permeability produced by histamine; assay: Capillary permeability, Lefebre's method (vascular permeability produced by histamine in rats); type: in vivo; conditions: 0.100 g/kg, subcutaneous
Method: The effect on the capillary permeability is determined by means of Lefebre's method, which is based on measuring, at the time of appearance of a coloration, the vascular permeability produced by histamine in rats that have been injected with the product under investigation. Ethamsylate is used as a standard, and the results obtained are as follows: […]

[2] = system: mean bleeding (clotting) time measured in a rabbit ear; assay: Hemostatic activity: mean bleeding (clotting) time in a rabbit ear, technique of Roskam and Pauwen; type: in vivo; conditions: i.v.
Method: The hemostatic activity is determined by means of a quantitative study of the mean bleeding (clotting) time measured in a rabbit ear by the technique described by Roskam and Pauwen.
Ethamsylate was used as a standard, and the results obtained were as follows: […]

[3] = Acute toxicity, LD50 in mice; type: in vivo; conditions: mouse, in vivo
Method: (§1) The LD50 in mice is determined for the endovenous, intraperitoneal and oral routes.

mice = assay: Acute toxicity, LD50 in mice; type: in vivo; conditions: for Acute toxicity, LD50, I.v. route: i.v. (endovenous)
Method: as §1

Row | SMILES | Antifibrinolytic activity, Weight capacity (fibrin plates) | Capillary resistance, % Effect (capillary resistance) | Capillary permeability, % Effect [1] | Hemostatic activity, % Effect ([2]; 10 mg/kg) | Hemostatic activity, % Effect ([2]; 100 mg/kg) | Antifibrinolytic activity, Relative capacity (fibrin plates) | LD50 ([3]; iv, i.v. (endovenous), read-out: Acute toxicity, LD50, I.v. route) | Acute toxicity, LD50, I.v. route (mice) | LD50 ([3]; ip, read-out: Acute toxicity, LD50, I.p. route) | LD50 ([3]; po, read-out: Acute toxicity, LD50, Oral route) | Acute toxicity, LD50, I.p. route (mice) | Acute toxicity, LD50, Oral route (mice) | Hemostatic activity, % Effect ([2]; 25 mg/kg)
1 | NC[C@H]1CC[C@H](C(=O)O)CC1 [AMCHA, trans-4-(aminomethyl)-cyclohexanecarboxylic acid, reference compound] | 1 | 20.08% | -2% | 22.5% | 26.5% | – | – | – | – | – | – | – | –
2 | O=S(=O)(O)c1cc(O)ccc1O [Ethamsylate, reference compound] | 0.28 | 14.18% | 26.33% | 22.11% | – | 0.47 | 800 mg/kg | – | – | – | – | – | –
3 | CC(=O)Oc1cc(S(=O)(=O)O)c2ccccc2c1N(C(C)=O)C(C)=O [Example 1, potassium N,N,O-triacetyl-1-amino-2-naphthol-4-sulphonate] | 0.91 | 23.6% | 19% | 18.2% | 23% | 2.06 | – | 653 mg/kg | 3560 mg/kg | > 7000 mg/kg | – | – | –
4 | CC(=O)Oc1cc(S(=O)(=O)O)c2ccccc2c1N(C(C)=O)C(C)=O [Example 2, morpholine N,N,O-triacetyl-1-amino-2-naphthol-4-sulphonate] | 0.59 | 23.95% | 29% | 24.7% | 13% | 1.67 | – | 1530 mg/kg | – | – | 4040 mg/kg | > 7000 mg/kg | –
5 | CC(=O)Oc1cc(S(=O)(=O)O)c2ccccc2c1N(C(C)=O)C(C)=O [Example 4, sodium N,N,O-triacetyl-1-amino-2-naphthol-4-sulphonate] | 1.21 | 17.9% | – | 29.7% | 29.8% | 2.61 | – | 3510 mg/kg | – | – | 5260 mg/kg | > 7000 mg/kg | –
6 | CC(=O)Nc1c(OC(C)=O)cc(S(=O)(=O)O)c2ccccc12 [Example 5, sodium N,O-diacetyl-1-amino-2-naphthol-4-sulphonate] | 0.55 | 26% | – | – | – | 1.19 | – | – | – | – | – | – | 10.6%
7 | CC(=O)Oc1cc(S(=O)(=O)O)c2ccccc2c1N(C(C)=O)C(C)=O [Example 11, AMCHA N,N,O-triacetyl-1-amino-2-naphthol-4-sulphonate] | 1.19 | 22.6% | 14% | 20% | 32% | 3.36 | – | – | – | – | – | – | –
